We go through two compounds from patent US5188952A, “Process for the decomposition of acrylamide” (Imperial Chemical Industries PLC, priority 1986, dated 1993).

The test system of this test is Methylophilus methylotrophus amidase (acylamide amidohydrolase EC No. 3-5-1-4). Nature of the test: Methylophilus methylotrophus amidase properties (Km). The note with it: substrate of the amidase; conditions not given. The format is biochemical.

Consider `C=CC(N)=O` [Acrylamide], for which the Km was determined as 10 mM.

In the case of `CC(N)=O` [Acetamide], the Km was 0.2 mM.
